Experimental data from ChEMBL document CHEMBL3885881, “DrugMatrix”.

Species on record: Rattus norvegicus
Experiment: DrugMatrix - Regimen: Daily Repeat
Format: toxicity, organism-based, Sprague-Dawley
Design: regimen Daily Repeat, gender Male, age 6-8 weeks
Conditions: in vivo, iv, vehicle 100 % SALINE; for ABSOLUTE BASOPHIL / ABSOLUTE EOSINOPHIL / ABSOLUTE LYMPHOCYTE / ABSOLUTE MONOCYTE / ABSOLUTE SEGMENTED NEUTROPHIL / BASOPHIL / EOSINOPHIL / ERYTHROCYTE COUNT / HEMATOCRIT / HEMOGLOBIN / LEUKOCYTE COUNT / LYMPHOCYTE / MEAN CORPUSCULAR HEMOGLOBIN / MEAN CORPUSCULAR HEMOGLOBIN CONCENTRATION / MEAN CORPUSCULAR VOLUME / MONOCYTE / NEUTROPHIL / NUCLEATED RED BLOOD CELLS / PLATELET COUNT: tissue Blood; for ALANINE AMINOTRANSFERASE / ALBUMIN / ALKALINE PHOSPHATASE / ASPARTATE AMINOTRANSFERASE / BLOOD UREA NITROGEN / CARBON DIOXIDE / CHLORIDE / CHOLESTEROL / CREATINE PHOSPHOKINASE / CREATININE / GLUCOSE / LACTATE DEHYDROGENASE / LIPASE / PHOSPHORUS / POTASSIUM / SODIUM / TOTAL BILIRUBIN / TOTAL PROTEIN / URIC ACID: tissue Plasma
[1] = 2 mg/kg, 72 h, dose level Low, time 3 day
[2] = 2 mg/kg, 120 h, dose level Low, time 5 day
[3] = 20 mg/kg, 72 h, dose level High, time 3 day
[4] = 20 mg/kg, 120 h, dose level High, time 5 day

`CCN1CC(CCN2CCOCC2)C(c2ccccc2)(c2ccccc2)C1=O` (configuration not stated) [DOXAPRAM] was tested, and the “ABSOLUTE BASOPHIL” value [1] was 0 CELLS/uL, the “ABSOLUTE EOSINOPHIL” value [1] was 0 CELLS/uL and the “ABSOLUTE LYMPHOCYTE” value [1] was 13662.33 CELLS/uL. For the same compound, the “ABSOLUTE MONOCYTE” value [1] was 351.67 CELLS/uL, the “ABSOLUTE SEGMENTED NEUTROPHIL” value [1] was 2319.33 CELLS/uL and the BASOPHIL [1] was 0%. The EOSINOPHIL [1] was 0%, the “ERYTHROCYTE COUNT” value [1] was 5.67 x10E6/uL and the HEMATOCRIT [1] was 35.7%. For the same compound, the HEMOGLOBIN [1] was 14.2 G/DL, the “LEUKOCYTE COUNT” value [1] was 16.33 x10E3/uL and the LYMPHOCYTE [1] was 84%. For the same compound, the “MEAN CORPUSCULAR HEMOGLOBIN” value [1] was 25.1 pg, the “MEAN CORPUSCULAR HEMOGLOBIN CONCENTRATION” value [1] was 39.77 G/DL and the “MEAN CORPUSCULAR VOLUME” value [1] was 63.03 fL. For the same compound, the MONOCYTE [1] was 2%, the NEUTROPHIL [1] was 14% and the “NUCLEATED RED BLOOD CELLS” value [1] was 0 /100WBC. The “PLATELET COUNT” value [1] was 1174 x10E3/uL, the “ALANINE AMINOTRANSFERASE” value [1] was 72.33 u/L and the ALBUMIN [1] was 3.93 G/DL. For the same compound, the “ALKALINE PHOSPHATASE” value [1] was 296.67 u/L, the “ASPARTATE AMINOTRANSFERASE” value [1] was 101 u/L and the “BLOOD UREA NITROGEN” value [1] was 17 mg/dL. The “CARBON DIOXIDE” value [1] was 26.33 mmol/L, the CHLORIDE [1] was 101.33 MEQ/L and the CHOLESTEROL [1] was 83.33 mg/dL. The “CREATINE PHOSPHOKINASE” value [1] was 298.67 u/L, the CREATININE [1] was 0.15 mg/dL and the GLUCOSE [1] was 149 mg/dL. The “LACTATE DEHYDROGENASE” value [1] was 372.67 u/L, the LIPASE [1] was 8 u/L and the PHOSPHORUS [1] was 12.83 mg/dL. The POTASSIUM [1] was 7.17 MEQ/L, the SODIUM [1] was 146.3 MEQ/L and the “TOTAL BILIRUBIN” value [1] was 0.17 mg/dL. For the same compound, the “TOTAL PROTEIN” value [1] was 6.1 G/DL, the “URIC ACID” value [1] was 1.53 mg/dL and the “ABSOLUTE BASOPHIL” value [2] was 0 CELLS/uL. For the same compound, the “ABSOLUTE EOSINOPHIL” value [2] was 0 CELLS/uL, the “ABSOLUTE LYMPHOCYTE” value [2] was 13405 CELLS/uL and the “ABSOLUTE MONOCYTE” value [2] was 468.67 CELLS/uL. The “ABSOLUTE SEGMENTED NEUTROPHIL” value [2] was 2059.67 CELLS/uL, the BASOPHIL [2] was 0% and the EOSINOPHIL [2] was 0%. The “ERYTHROCYTE COUNT” value [2] was 6.04 x10E6/uL, the HEMATOCRIT [2] was 37.2% and the HEMOGLOBIN [2] was 14.8 G/DL. For the same compound, the “LEUKOCYTE COUNT” value [2] was 15.93 x10E3/uL, the LYMPHOCYTE [2] was 84% and the “MEAN CORPUSCULAR HEMOGLOBIN” value [2] was 24.5 pg. The “MEAN CORPUSCULAR HEMOGLOBIN CONCENTRATION” value [2] was 39.8 G/DL, the “MEAN CORPUSCULAR VOLUME” value [2] was 61.53 fL and the MONOCYTE [2] was 3%. The NEUTROPHIL [2] was 13%, the “NUCLEATED RED BLOOD CELLS” value [2] was 0.67 /100WBC and the “PLATELET COUNT” value [2] was 1035 x10E3/uL. The “ALANINE AMINOTRANSFERASE” value [2] was 97.67 u/L, the ALBUMIN [2] was 3.97 G/DL and the “ALKALINE PHOSPHATASE” value [2] was 400.33 u/L. The “ASPARTATE AMINOTRANSFERASE” value [2] was 101.33 u/L, the “BLOOD UREA NITROGEN” value [2] was 15.33 mg/dL and the “CARBON DIOXIDE” value [2] was 26.33 mmol/L. The CHLORIDE [2] was 101.33 MEQ/L, the CHOLESTEROL [2] was 65.33 mg/dL and the “CREATINE PHOSPHOKINASE” value [2] was 230 u/L. For the same compound, the CREATININE [2] was 0.14 mg/dL, the GLUCOSE [2] was 159.33 mg/dL and the “LACTATE DEHYDROGENASE” value [2] was 100.67 u/L. The LIPASE [2] was 8.33 u/L, the PHOSPHORUS [2] was 12.7 mg/dL and the POTASSIUM [2] was 6.47 MEQ/L. For the same compound, the SODIUM [2] was 144.37 MEQ/L, the “TOTAL BILIRUBIN” value [2] was 0.13 mg/dL and the “TOTAL PROTEIN” value [2] was 6.17 G/DL. The “URIC ACID” value [2] was 1.6 mg/dL, the “ABSOLUTE BASOPHIL” value [3] was 0 CELLS/uL and the “ABSOLUTE EOSINOPHIL” value [3] was 173.33 CELLS/uL. For the same compound, the “ABSOLUTE LYMPHOCYTE” value [3] was 15104 CELLS/uL, the “ABSOLUTE MONOCYTE” value [3] was 284 CELLS/uL and the “ABSOLUTE SEGMENTED NEUTROPHIL” value [3] was 1672 CELLS/uL. The BASOPHIL [3] was 0%, the EOSINOPHIL [3] was 1% and the “ERYTHROCYTE COUNT” value [3] was 5.38 x10E6/uL. For the same compound, the HEMATOCRIT [3] was 34.17%, the HEMOGLOBIN [3] was 13.5 G/DL and the “LEUKOCYTE COUNT” value [3] was 17.23 x10E3/uL. The LYMPHOCYTE [3] was 87.67%, the “MEAN CORPUSCULAR HEMOGLOBIN” value [3] was 25.13 pg and the “MEAN CORPUSCULAR HEMOGLOBIN CONCENTRATION” value [3] was 39.53 G/DL. For the same compound, the “MEAN CORPUSCULAR VOLUME” value [3] was 63.6 fL, the MONOCYTE [3] was 1.67% and the NEUTROPHIL [3] was 9.67%. The “NUCLEATED RED BLOOD CELLS” value [3] was 0 /100WBC, the “PLATELET COUNT” value [3] was 1285.33 x10E3/uL and the “ALANINE AMINOTRANSFERASE” value [3] was 51.67 u/L. For the same compound, the ALBUMIN [3] was 4.33 G/DL, the “ALKALINE PHOSPHATASE” value [3] was 402.67 u/L and the “ASPARTATE AMINOTRANSFERASE” value [3] was 102.67 u/L. For the same compound, the “BLOOD UREA NITROGEN” value [3] was 15 mg/dL, the “CARBON DIOXIDE” value [3] was 21.67 mmol/L and the CHLORIDE [3] was 102 MEQ/L. The CHOLESTEROL [3] was 79 mg/dL, the “CREATINE PHOSPHOKINASE” value [3] was 445.33 u/L and the CREATININE [3] was 0.15 mg/dL. The GLUCOSE [3] was 149.33 mg/dL, the “LACTATE DEHYDROGENASE” value [3] was 669.33 u/L and the LIPASE [3] was 9 u/L. For the same compound, the PHOSPHORUS [3] was 13.03 mg/dL, the POTASSIUM [3] was 6.9 MEQ/L and the SODIUM [3] was 143.67 MEQ/L. The “TOTAL BILIRUBIN” value [3] was 0.17 mg/dL, the “TOTAL PROTEIN” value [3] was 5.93 G/DL and the “URIC ACID” value [3] was 1.7 mg/dL. The “ABSOLUTE BASOPHIL” value [4] was 0 CELLS/uL, the “ABSOLUTE EOSINOPHIL” value [4] was 118.67 CELLS/uL and the “ABSOLUTE LYMPHOCYTE” value [4] was 15901.33 CELLS/uL. The “ABSOLUTE MONOCYTE” value [4] was 415.33 CELLS/uL, the “ABSOLUTE SEGMENTED NEUTROPHIL” value [4] was 1364.67 CELLS/uL and the BASOPHIL [4] was 0%. The EOSINOPHIL [4] was 0.67%, the “ERYTHROCYTE COUNT” value [4] was 5.51 x10E6/uL and the HEMATOCRIT [4] was 34.63%. For the same compound, the HEMOGLOBIN [4] was 13.57 G/DL, the “LEUKOCYTE COUNT” value [4] was 17.8 x10E3/uL and the LYMPHOCYTE [4] was 89.33%. The “MEAN CORPUSCULAR HEMOGLOBIN” value [4] was 24.63 pg, the “MEAN CORPUSCULAR HEMOGLOBIN CONCENTRATION” value [4] was 39.17 G/DL and the “MEAN CORPUSCULAR VOLUME” value [4] was 62.8 fL. The MONOCYTE [4] was 2.33%, the NEUTROPHIL [4] was 7.67% and the “NUCLEATED RED BLOOD CELLS” value [4] was 0 /100WBC. For the same compound, the “PLATELET COUNT” value [4] was 1309.33 x10E3/uL, the “ALANINE AMINOTRANSFERASE” value [4] was 57 u/L and the ALBUMIN [4] was 4.33 G/DL. The “ALKALINE PHOSPHATASE” value [4] was 365.67 u/L, the “ASPARTATE AMINOTRANSFERASE” value [4] was 95.67 u/L and the “BLOOD UREA NITROGEN” value [4] was 16 mg/dL. The “CARBON DIOXIDE” value [4] was 23.33 mmol/L, the CHLORIDE [4] was 102.67 MEQ/L and the CHOLESTEROL [4] was 66.33 mg/dL. The “CREATINE PHOSPHOKINASE” value [4] was 259 u/L, the CREATININE [4] was 0.18 mg/dL and the GLUCOSE [4] was 166 mg/dL. For the same compound, the “LACTATE DEHYDROGENASE” value [4] was 229 u/L, the LIPASE [4] was 8.33 u/L and the PHOSPHORUS [4] was 13.17 mg/dL. For the same compound, the POTASSIUM [4] was 6.59 MEQ/L, the SODIUM [4] was 144.97 MEQ/L and the “TOTAL BILIRUBIN” value [4] was 0.23 mg/dL. For the same compound, the “TOTAL PROTEIN” value [4] was 5.93 G/DL and the “URIC ACID” value [4] was 2.2 mg/dL.
